Laboratory results as given in PubChem BioAssay AID2060358 (Molecular Pharmacology Branch, DTP, NCI, 2025).
Values joined by “and” are separate entries in the source; they are usually repeats but may differ in a detail not shown here. Equal entries are not always repeated. Active and inactive are the calls of the source. Rule for the calls: active = viability on the fitted dose curve at most 10% of control; inactive = the rest.

System: 254851-301-R-J1-PDC spheroids, viability % test/control
Assay: Anticancer human tumor 254851-301-R-J1-PDC patient-derived colon carcinoma cell line growth inhibition [TAK]
Settings: spheroids with HUVEC and MSC; for viability, T/C: stronger effect = lower value
Excerpt: Combinatorial screen of targeted agents with TAK-243 and ipatasertib in multi-cell type tumor spheroids
A high-throughput screen of multi-cell type tumor spheroids was designed to identify active combinations of targeted small molecules and TAK-243 or ipatasertib. Complex spheroids include a stromal component modeled by human endothelial cells (HUVEC) and fibroblasts modeled by human mesenchymal stem cells (MSCs). The concentration ranges selected for each drug and investigational agent were based upon clinically achievable concentrations if the clinical Cmax of the agent was known.
Compounds. The drugs and investigational agents: TAK-243 (785004), ipatasertib (767898), everolimus (733504), selumetinib (741078), bortezomib (756655), trametinib (758246), ixazomib (758254), vemurafenib (761431), dabrafenib (764134), sapanisertib (764658), alpelisib (765974), and copanlisib (816437), were obtained from the National Cancer Institute (NCI) Developmental Therapeutics Program Chemical Repository. The FDA-approved anticancer drug set is available from the NCI Developmental Therapeutics Program. […] The stock solutions were prepared in dimethyl sulfoxide (DMSO, Sigma-Aldrich, St. Louis, MO, cat. D2650) at 800-fold the tested concentration and stored at -70 degrees C prior to their use. All drugs and investigational agents were tested over a range starting from a high concentration at or near the clinical Cmax and decreasing in half-log increments. If the clinical Cmax for an agent had not been determined, the highest concentration tested was 10 microM.
NCI60 Cell Culture. NCI60 cell lines were obtained from the NCI Developmental Therapeutics Program Tumor Repository. For each lot of cells, the Repository performed Applied Biosystems AmpFLSTR Identifiler testing with PCR amplification to confirm consistency with the published Identifier STR profile for each cell line. Cells were kept in continuous culture for no more than 20 passages. The optimal seeding densities for each of the cell lines at each time point assessed were determined prior to performing the concentration response studies. Briefly, the NCI60 human tumor lines were grown as monolayers in RPMI 1640 medium supplemented with 10% FBS and 2 mmol/L L-glutamine.
An additional 2 lines were from the NCI60 cell line panel including melanomas, MALME-3M and SK-MEL-2. Pooled donor human umbilical vein endothelial cells (HUVEC, Lonza, cat. CC-2519) and human mesenchymal stem cells (hMSC, Lonza, cat. PT-2501) were purchased from Lonza (Walkersville, MD).
PDMR cell lines were grown in complete medium (DC medium): Dulbecco's modified Eagle's medium (DMEM)/F12 supplemented with 5% fetal bovine serum (FBS), 2 mM L-glutamine, 100 U/mL penicillin and 100 µg/ml streptomycin, 0.4 µg/ml hydrocortisone, 10 ng/ml epidermal growth factor (EGF) recombinant human protein, 24 µg/mL adenine, and 0.1 mg/mL primocin. During culture from frozen stock vials, PDMR cells were cultured in the same medium containing 10 µM Y-27632 (see Table 3). The PDCs were cultured in complete DMEM/F12 media without 10 microM Y-27632 dihydrochloride for at least two passages prior to the screen. The pooled donor HUVEC and hMSC were cultured in endothelial cell growth medium 2 (PromoCell, Heidelberg, Germany, cat. C-22011) and mesenchymal stem cell growth medium 2 (PromoCell, cat. C-28009), respectively. For all experiments, HUVEC and hMSC were used at passages </=5.
For the pre-screen, cell seeding densities were determined from a titration spanning the range from 5,000 to 313 cells per well. The mct-spheroids including 60% malignant cells, 25% HUVEC and 15% MSC dispensed as a mixture into U-bottom Ultra-Low Attachment 384-well plates (Corning, NY)
High-throughput Drug Combination Screening.
Prior to their inoculation into 384-well plates, malignant cells, HUVEC, and hMSC were removed from T flasks using TrypLE express (Thermo Fisher Scientific, cat. 12605036) and harvested by centrifugation for 5 min at 233 x g. […]
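Throughout, for IC50: spheroids exposed to drugs for seven days before viability readout.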
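Throughout, for viability, T/C: spheroids exposed to drugs for seven days before viability readout.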

SMILES: CC(C)(C)c1nc(-c2cccc(NS(=O)(=O)c3c(F)cccc3F)c2F)c(-c2ccnc(N)n2)s1
- viability, T/C (compound 0.0316 µM): 116% and 118%
- viability, T/C (compound 0.1 µM): 105%
- viability, T/C (compound 0.316 µM): 92.3% and 86.4%
- viability, T/C (compound 1 µM): 82.1% and 82.5%
- viability, T/C (compound 3.16 µM): 86.8% and 82.2%
- viability, T/C (compound 10 µM): 80.3% and 77.6%
- IC50 (curve of compound): > 10000 nM

SMILES: CC(C)n1nc(-c2ccc3oc(N)nc3c2)c2c(N)ncnc21
- viability, T/C (compound 0.000316 µM): 125% and 110%
- viability, T/C (compound 0.001 µM): 104% and 109%
- viability, T/C (compound 0.00316 µM): 89.8% and 90.4%
- viability, T/C (compound 0.01 µM): 76.5% and 81.7%
- viability, T/C (compound 0.0316 µM): 55.7% and 52.2%
- viability, T/C (compound 0.1 µM): 34.5% and 34.2%
- IC50 (curve of compound): 42.5 nM and 40.3 nM

SMILES: CC(=O)Nc1cccc(-n2c(=O)n(C3CC3)c(=O)c3c(Nc4ccc(I)cc4F)n(C)c(=O)c(C)c32)c1 + CC(C)NCC(C(=O)N1CCN(c2ncnc3c2C(C)CC3O)CC1)c1ccc(Cl)cc1
- IC50 (curve of first compound, second compound 0.3 µM): 17.6 nM
- IC50 (curve of first compound, second compound 0.949 µM): 17.6 nM
- IC50 (curve of first compound, second compound 3 µM): 18.6 nM
- IC50 (curve of first compound, second compound 9.49 µM): 17.3 nM
- IC50 (curve of first compound, second compound 30 µM): 12.5 nM
- viability, T/C (second compound 0.3 µM, first compound 94.9 pM): 115%
- viability, T/C (second compound 0.3 µM, first compound 0.0003 µM): 109%
- viability, T/C (second compound 0.3 µM, first compound 0.000949 µM): 108%
- viability, T/C (second compound 0.3 µM, first compound 0.003 µM): 116%
- viability, T/C (second compound 0.3 µM, first compound 0.00949 µM): 95.7%
- viability, T/C (second compound 0.3 µM, first compound 0.03 µM): 11%
- viability, T/C (second compound 0.949 µM, first compound 94.9 pM): 111%
- viability, T/C (second compound 0.949 µM, first compound 0.0003 µM): 110%
- viability, T/C (second compound 0.949 µM, first compound 0.000949 µM): 111%
- viability, T/C (second compound 0.949 µM, first compound 0.003 µM): 102%
- viability, T/C (second compound 0.949 µM, first compound 0.00949 µM): 88.5%
- viability, T/C (second compound 0.949 µM, first compound 0.03 µM): 17.4%
- viability, T/C (second compound 3 µM, first compound 94.9 pM): 106%
- viability, T/C (second compound 3 µM, first compound 0.0003 µM): 107%
- viability, T/C (second compound 3 µM, first compound 0.000949 µM): 110%
- viability, T/C (second compound 3 µM, first compound 0.003 µM): 116%
- outcome (second compound 3 µM, first compound 0.00949 µM): inactive
- viability, T/C (second compound 3 µM, first compound 0.03 µM): 9.28%
- viability, T/C (second compound 9.49 µM, first compound 94.9 pM): 94.7%
- viability, T/C (second compound 9.49 µM, first compound 0.0003 µM): 114%
- viability, T/C (second compound 9.49 µM, first compound 0.000949 µM): 106%
- viability, T/C (second compound 9.49 µM, first compound 0.003 µM): 108%
- viability, T/C (second compound 9.49 µM, first compound 0.00949 µM): 97.7%
- viability, T/C (second compound 9.49 µM, first compound 0.03 µM): 6.45%
- viability, T/C (second compound 30 µM, first compound 94.9 pM): 81.1%
- viability, T/C (second compound 30 µM, first compound 0.0003 µM): 96.6%
- viability, T/C (second compound 30 µM, first compound 0.000949 µM): 97.3%
- viability, T/C (second compound 30 µM, first compound 0.003 µM): 81.4%
- viability, T/C (second compound 30 µM, first compound 0.00949 µM): 65.3%
- viability, T/C (second compound 30 µM, first compound 0.03 µM): 2.95%
